Assay results as given in ChEMBL document CHEMBL2169819, “Synthesis and biological evaluation of 2-amino-3-(4-chlorobenzoyl)-4-[(4-arylpiperazin-1-yl)methyl]-5-substituted-thiophenes. effect of the 5-modification on allosteric enhancer activity at the A1 adenosine receptor” (J Med Chem, 2012).

Molecular target: T1, Adenosine receptor A1 (Homo sapiens) (UniProt P30542)
T1 sequence (whole entry): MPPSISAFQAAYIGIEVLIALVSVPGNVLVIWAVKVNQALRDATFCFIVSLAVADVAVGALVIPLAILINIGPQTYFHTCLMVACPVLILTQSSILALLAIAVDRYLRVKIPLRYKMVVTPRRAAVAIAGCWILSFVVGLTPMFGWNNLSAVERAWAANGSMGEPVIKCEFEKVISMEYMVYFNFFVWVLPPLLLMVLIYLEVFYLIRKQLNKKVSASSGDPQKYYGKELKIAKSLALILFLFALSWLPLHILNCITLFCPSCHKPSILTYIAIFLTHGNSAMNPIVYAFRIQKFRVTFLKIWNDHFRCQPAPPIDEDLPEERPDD
Assay: Allosteric enhancing activity at human adenosine A1 receptor expressed in CHO cells assessed as increase in CCPA-induced [3H]DPCPX displacement at 10 uM after 90 mins relative to control
Format: cell-based

Ratio Ki | Compound
4.9 | CCc1sc(N)c(C(=O)c2ccc(Cl)cc2)c1CN1CCN(c2ccccc2)CC1
1.2 | Cc1sc(N)c(C(=O)c2ccc(Cl)cc2)c1CN1CCN(c2ccc(C#N)cc2)CC1
5.4 | Cc1sc(N)c(C(=O)c2ccc(Cl)cc2)c1CN1CCN(c2ccc(Cl)c(Cl)c2)CC1
7.7 | Nc1sc(-c2ccc(Cl)cc2)c(CN2CCN(c3ccc(Cl)c(Cl)c3)CC2)c1C(=O)c1ccc(Cl)cc1

Continued, compound first:

Compound | Ratio Ki
Nc1sc(-c2ccccc2)c(CN2CCN(c3ccc(C(F)(F)F)cc3)CC2)c1C(=O)c1ccc(Cl)cc1 | 8.9
Cc1sc(N)c(C(=O)c2ccc(Cl)cc2)c1CN1CCN(Cc2ccccc2)CC1 | 1.4
Nc1sc(-c2ccc(Cl)cc2)c(CN2CCN(c3ccc(C(F)(F)F)cc3)CC2)c1C(=O)c1ccc(Cl)cc1 | 10.5
Nc1scc(CN2CCN(c3ccc(C(F)(F)F)cc3)CC2)c1C(=O)c1ccc(Cl)cc1 | 6.3

Molecular target: T1, Adenosine receptor A1 (Homo sapiens)
Assay: Allosteric enhancing activity at human adenosine A1 receptor expressed in CHO cells assessed as increase in [3H]-2-chloro-N6-cyclopentyladenosine Bmax at 10 uM after 90 mins relative to control
Format: cell-based

fold change (FC) | Compound
5.5 | CCc1sc(N)c(C(=O)c2ccc(Cl)cc2)c1CN1CCN(c2ccccc2)CC1
1.4 | Cc1sc(N)c(C(=O)c2ccc(Cl)cc2)c1CN1CCN(c2ccc(C#N)cc2)CC1
5.9 | Cc1sc(N)c(C(=O)c2ccc(Cl)cc2)c1CN1CCN(c2ccc(Cl)c(Cl)c2)CC1
8.3 | Nc1sc(-c2ccc(Cl)cc2)c(CN2CCN(c3ccc(Cl)c(Cl)c3)CC2)c1C(=O)c1ccc(Cl)cc1

More lines, now with the values behind:

Compound | fold change (FC)
Nc1sc(-c2ccccc2)c(CN2CCN(c3ccc(C(F)(F)F)cc3)CC2)c1C(=O)c1ccc(Cl)cc1 | 10.7
Cc1sc(N)c(C(=O)c2ccc(Cl)cc2)c1CN1CCN(Cc2ccccc2)CC1 | 1.8
Nc1sc(-c2ccc(Cl)cc2)c(CN2CCN(c3ccc(C(F)(F)F)cc3)CC2)c1C(=O)c1ccc(Cl)cc1 | 11.2
Nc1scc(CN2CCN(c3ccc(C(F)(F)F)cc3)CC2)c1C(=O)c1ccc(Cl)cc1 | 7.7

Molecular target: T2, Adenosine receptor A3 (Homo sapiens) (UniProt P0DMS8)
T2 sequence (whole entry): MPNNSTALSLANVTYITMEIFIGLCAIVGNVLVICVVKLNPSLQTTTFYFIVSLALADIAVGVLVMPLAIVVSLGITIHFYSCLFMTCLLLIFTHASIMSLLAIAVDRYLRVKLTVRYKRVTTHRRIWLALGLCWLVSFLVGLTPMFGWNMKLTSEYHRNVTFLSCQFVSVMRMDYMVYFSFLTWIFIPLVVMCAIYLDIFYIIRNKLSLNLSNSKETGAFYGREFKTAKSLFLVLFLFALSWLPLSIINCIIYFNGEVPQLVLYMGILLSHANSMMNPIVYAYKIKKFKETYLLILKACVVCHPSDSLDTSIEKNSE
Assay: Displacement of [3H]MRE-3008-F20 from human adenosine A3 receptor expressed in CHO cells at 10 uM after 120 mins by scintillation counting
Format: cell-based

inhibition [%] | Compound
< 12 | CCc1sc(N)c(C(=O)c2ccc(Cl)cc2)c1CN1CCN(c2ccccc2)CC1
< 12 | Cc1sc(N)c(C(=O)c2ccc(Cl)cc2)c1CN1CCN(c2ccc(C#N)cc2)CC1
< 12 | Cc1sc(N)c(C(=O)c2ccc(Cl)cc2)c1CN1CCN(c2ccc(Cl)c(Cl)c2)CC1
< 12 | Nc1sc(-c2ccc(Cl)cc2)c(CN2CCN(c3ccc(Cl)c(Cl)c3)CC2)c1C(=O)c1ccc(Cl)cc1

The next lines start with the compound.

Compound | inhibition [%]
Nc1sc(-c2ccccc2)c(CN2CCN(c3ccc(C(F)(F)F)cc3)CC2)c1C(=O)c1ccc(Cl)cc1 | < 12
Cc1sc(N)c(C(=O)c2ccc(Cl)cc2)c1CN1CCN(Cc2ccccc2)CC1 | < 12
Nc1sc(-c2ccc(Cl)cc2)c(CN2CCN(c3ccc(C(F)(F)F)cc3)CC2)c1C(=O)c1ccc(Cl)cc1 | < 12

Molecular target: Adenosine receptor A2a (Homo sapiens) (UniProt P29274)
Assay: Displacement of [3H]ZM241385 from human adenosine A2A receptor expressed in CHO cells at 10 uM after 120 mins by scintillation counting
Format: cell-based

Adenosine receptor A2a (Homo sapiens), sequence (P29274 whole entry): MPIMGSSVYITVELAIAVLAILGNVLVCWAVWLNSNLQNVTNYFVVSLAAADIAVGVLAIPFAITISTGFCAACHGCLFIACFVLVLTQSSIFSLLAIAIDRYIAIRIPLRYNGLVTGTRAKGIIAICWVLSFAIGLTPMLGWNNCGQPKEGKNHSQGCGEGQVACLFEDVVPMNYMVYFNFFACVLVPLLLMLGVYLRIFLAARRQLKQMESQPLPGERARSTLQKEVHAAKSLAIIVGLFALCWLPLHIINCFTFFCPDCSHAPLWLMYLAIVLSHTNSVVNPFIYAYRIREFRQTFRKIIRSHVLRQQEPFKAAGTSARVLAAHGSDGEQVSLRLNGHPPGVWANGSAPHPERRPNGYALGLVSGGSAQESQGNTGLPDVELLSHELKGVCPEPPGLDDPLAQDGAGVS

inhibition [%] | Compound
< 12 | CCc1sc(N)c(C(=O)c2ccc(Cl)cc2)c1CN1CCN(c2ccccc2)CC1
< 12 | Cc1sc(N)c(C(=O)c2ccc(Cl)cc2)c1CN1CCN(c2ccc(C#N)cc2)CC1
< 12 | Cc1sc(N)c(C(=O)c2ccc(Cl)cc2)c1CN1CCN(c2ccc(Cl)c(Cl)c2)CC1
< 12 | Nc1sc(-c2ccc(Cl)cc2)c(CN2CCN(c3ccc(Cl)c(Cl)c3)CC2)c1C(=O)c1ccc(Cl)cc1

Second part, the compound before the results:

Compound | inhibition [%]
Nc1sc(-c2ccccc2)c(CN2CCN(c3ccc(C(F)(F)F)cc3)CC2)c1C(=O)c1ccc(Cl)cc1 | < 12
Cc1sc(N)c(C(=O)c2ccc(Cl)cc2)c1CN1CCN(Cc2ccccc2)CC1 | < 12
Nc1sc(-c2ccc(Cl)cc2)c(CN2CCN(c3ccc(C(F)(F)F)cc3)CC2)c1C(=O)c1ccc(Cl)cc1 | < 12

Molecular target: T1, Adenosine receptor A1 (Homo sapiens)
Assay: Displacement of [3H]DPCPX from human adenosine A1 receptor expressed in CHO cells at 10 uM after 120 mins by scintillation counting
Format: cell-based

inhibition [%] | Compound
< 12 | CCc1sc(N)c(C(=O)c2ccc(Cl)cc2)c1CN1CCN(c2ccccc2)CC1
< 12 | Cc1sc(N)c(C(=O)c2ccc(Cl)cc2)c1CN1CCN(c2ccc(C#N)cc2)CC1
< 12 | Cc1sc(N)c(C(=O)c2ccc(Cl)cc2)c1CN1CCN(c2ccc(Cl)c(Cl)c2)CC1
< 12 | Nc1sc(-c2ccc(Cl)cc2)c(CN2CCN(c3ccc(Cl)c(Cl)c3)CC2)c1C(=O)c1ccc(Cl)cc1

The next lines start with the compound.

Compound | inhibition [%]
Nc1sc(-c2ccccc2)c(CN2CCN(c3ccc(C(F)(F)F)cc3)CC2)c1C(=O)c1ccc(Cl)cc1 | < 12
Cc1sc(N)c(C(=O)c2ccc(Cl)cc2)c1CN1CCN(Cc2ccccc2)CC1 | < 12
Nc1sc(-c2ccc(Cl)cc2)c(CN2CCN(c3ccc(C(F)(F)F)cc3)CC2)c1C(=O)c1ccc(Cl)cc1 | < 12

Molecular target: T1, Adenosine receptor A1 (Homo sapiens)
Assay: Allosteric enhancing activity at human adenosine A1 receptor expressed in CHO cells assessed as inhibition of forskolin-stimulated cAMP accumulation at 100 nM incubated for 10 mins prior to forskolin-stimulation measured after 5 mins by competition protein binding assay in presence of 2-chloro-N6-cyclopentyladenosine
Format: functional, cell-based

inhibition [%] | Compound
50 | CCc1sc(N)c(C(=O)c2ccc(Cl)cc2)c1CN1CCN(c2ccccc2)CC1
15 | Cc1sc(N)c(C(=O)c2ccc(Cl)cc2)c1CN1CCN(c2ccc(C#N)cc2)CC1
51 | Cc1sc(N)c(C(=O)c2ccc(Cl)cc2)c1CN1CCN(c2ccc(Cl)c(Cl)c2)CC1
67 | Nc1sc(-c2ccc(Cl)cc2)c(CN2CCN(c3ccc(Cl)c(Cl)c3)CC2)c1C(=O)c1ccc(Cl)cc1

The remaining lines, values behind:

Compound | inhibition [%]
Nc1sc(-c2ccccc2)c(CN2CCN(c3ccc(C(F)(F)F)cc3)CC2)c1C(=O)c1ccc(Cl)cc1 | 73
Cc1sc(N)c(C(=O)c2ccc(Cl)cc2)c1CN1CCN(Cc2ccccc2)CC1 | 19
Nc1sc(-c2ccc(Cl)cc2)c(CN2CCN(c3ccc(C(F)(F)F)cc3)CC2)c1C(=O)c1ccc(Cl)cc1 | 75

Molecular target: T1, Adenosine receptor A1 (Homo sapiens)
Assay: Allosteric enhancing activity at human adenosine A1 receptor expressed in CHO cells assessed as inhibition of forskolin-stimulated cAMP accumulation at 10 uM incubated for 10 mins prior to forskolin-stimulation measured after 5 mins by competition protein binding assay
Format: functional, cell-based

inhibition [%] | Compound
57 | CCc1sc(N)c(C(=O)c2ccc(Cl)cc2)c1CN1CCN(c2ccccc2)CC1
11 | Cc1sc(N)c(C(=O)c2ccc(Cl)cc2)c1CN1CCN(c2ccc(C#N)cc2)CC1
56 | Cc1sc(N)c(C(=O)c2ccc(Cl)cc2)c1CN1CCN(c2ccc(Cl)c(Cl)c2)CC1
69 | Nc1sc(-c2ccc(Cl)cc2)c(CN2CCN(c3ccc(Cl)c(Cl)c3)CC2)c1C(=O)c1ccc(Cl)cc1

Continued, compound first:

Compound | inhibition [%]
Nc1sc(-c2ccccc2)c(CN2CCN(c3ccc(C(F)(F)F)cc3)CC2)c1C(=O)c1ccc(Cl)cc1 | 72
Cc1sc(N)c(C(=O)c2ccc(Cl)cc2)c1CN1CCN(Cc2ccccc2)CC1 | 14
Nc1sc(-c2ccc(Cl)cc2)c(CN2CCN(c3ccc(C(F)(F)F)cc3)CC2)c1C(=O)c1ccc(Cl)cc1 | 83
